The text below walks through data of PubChem BioAssay (NCI).

Among the test systems are 786-0 renal; A549 NSCLC; BT-549 breast; EKVX NSCLC; HCT-116 colon; HCT-15 colon; KM12 colon; NCI-H23 lung; OVCAR-4 ovarian; OVCAR-5 ovarian; SF-295 CNS; SN12C renal; SNB-19 CNS; ACHN renal; HCC-2998 colon; U251 CNS.
Common to all, as to test: NCI tumour cell line growth inhibition, 48 h

Molecules are shown by their SMILES.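 Following 48 hours of exposure in 96-well plates, responses at five concentrations were used to interpolate endpoints linearly. TGI denotes the concentration required for complete inhibition of growth.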

`CCN(CC)CCCNc1ccc([N+](=O)[O-])c2nc3ccccc3c(N)c12`: the TGI turned out to be 1.72 µM with 786-0 renal; 2.11 µM in the assay with A549 NSCLC; 3.32 µM with BT-549 breast; 2.86 µM with EKVX NSCLC; 1.48 µM with HCT-116 colon; 2.55 µM in the assay with HCT-15 colon. In addition, the TGI with KM12 colon was 1.7 µM; in the assay with NCI-H23 lung, 2.76 µM; with OVCAR-4 ovarian it was 1.94 µM; in the assay with OVCAR-5 ovarian, 3.43 µM; in the assay with SF-295 CNS, 1.87 µM; in the assay with SN12C renal, over 10 µM. The TGI in the assay on SNB-19 CNS came out at 5.5 µM.
As to `N#C/C(c1nc2ccccc2[nH]1)=c1\s/c(=C/c2ccccc2)c(=O)n1-c1ccccc1`, the TGI in the assay on 786-0 renal, in the assay with A549 NSCLC, with ACHN renal, in the assay with EKVX NSCLC, in the assay on HCC-2998 colon and in the assay with HCT-116 colon was over 100 µM throughout. In addition, the TGI with HCT-15 colon, with KM12 colon, in the assay with NCI-H23 lung, in the assay on OVCAR-4 ovarian, with OVCAR-5 ovarian and with SN12C renal was over 100 µM in each case. For the same compound, the TGI in the assay with SNB-19 CNS and with U251 CNS was over 100 µM in each case.
Take `O=C1C(Cl)C(c2ccccc2Cl)N1n1cnc2ccccc2c1=O` (centres undefined): the TGI in the assay with 786-0 renal, in the assay on A549 NSCLC, in the assay with ACHN renal, in the assay on EKVX NSCLC, with HCC-2998 colon and in the assay on HCT-116 colon was over 100 µM in each case. Moreover, the TGI in the assay with HCT-15 colon, in the assay with KM12 colon, in the assay on NCI-H23 lung, in the assay on OVCAR-4 ovarian, in the assay with OVCAR-5 ovarian and with SF-295 CNS was over 100 µM throughout. In addition, the TGI in the assay with SN12C renal, in the assay on SNB-19 CNS and in the assay on U251 CNS was over 100 µM throughout.
Turning to `NC(=O)N/N=C(\CC1OC(=O)c2ccccc21)c1ccc([N+](=O)[O-])cc1` (centres undefined), the TGI in the assay on 786-0 renal was 32 µM; in the assay on A549 NSCLC it was over 100 µM; with ACHN renal, over 100 µM; in the assay on EKVX NSCLC, over 100 µM; in the assay with HCC-2998 colon, 32.7 µM; with HCT-116 colon, 74.2 µM. The TGI in the assay with HCT-15 colon is 59.7 µM; in the assay on KM12 colon, 95.9 µM; with OVCAR-4 ovarian, over 100 µM; in the assay on SF-295 CNS, over 100 µM; with SN12C renal, over 100 µM; in the assay with SNB-19 CNS, 51.6 µM. The same compound gave a TGI with U251 CNS of 39.5 µM.
Consider `O=S(Cc1ccccc1)c1ccccc1Cn1cccc1` (centres undefined), for which the TGI in the assay with 786-0 renal, with A549 NSCLC, in the assay with ACHN renal, with BT-549 breast, in the assay on EKVX NSCLC and in the assay on HCC-2998 colon was over 100 µM throughout. Moreover, the TGI in the assay with HCT-116 colon, in the assay with HCT-15 colon, in the assay with KM12 colon, with NCI-H23 lung, with OVCAR-4 ovarian and in the assay with OVCAR-5 ovarian was over 100 µM in each case. Further, the TGI in the assay with SF-295 CNS, in the assay with SN12C renal, in the assay with SNB-19 CNS and in the assay on U251 CNS was over 100 µM in each case.
On to `CC(=O)NC(CCCNC(=O)N(C)N=O)C(=O)NCc1ccccc1` (centres undefined), for which the TGI in the assay with 786-0 renal, in the assay on A549 NSCLC, in the assay on ACHN renal, in the assay on EKVX NSCLC, in the assay with HCC-2998 colon and in the assay on HCT-116 colon was over 100 µM each time. For the same compound, the TGI in the assay on HCT-15 colon, in the assay with KM12 colon, in the assay with NCI-H23 lung, with OVCAR-4 ovarian, in the assay with OVCAR-5 ovarian and in the assay with SF-295 CNS was over 100 µM each time. For the same compound, the TGI in the assay on SN12C renal, with SNB-19 CNS and in the assay on U251 CNS was over 100 µM throughout.
For the compound `Cc1ccc(C(=O)NC2CCCCC2)cc1N=NN(C)C`, the TGI in the assay on 786-0 renal, in the assay on A549 NSCLC, in the assay on ACHN renal, in the assay with EKVX NSCLC, with HCC-2998 colon and in the assay on HCT-116 colon was over 100 µM in each case. In addition, the TGI in the assay with HCT-15 colon, in the assay with KM12 colon, with NCI-H23 lung, with OVCAR-4 ovarian, in the assay with SF-295 CNS and in the assay on SN12C renal was over 100 µM in each case. Further, the TGI in the assay with SNB-19 CNS and with U251 CNS was over 100 µM each time.
As for `CCc1cccc(C(C)C)c1NC(=O)/C(=N\NC(N)=O)C(C(=O)OC)c1cnc2ccccc2n1` (centres undefined), the TGI in the assay on 786-0 renal is over 100 µM; in the assay on A549 NSCLC, 76.5 µM; in the assay with ACHN renal, over 100 µM; in the assay on EKVX NSCLC, over 100 µM; with HCC-2998 colon, over 100 µM; with HCT-116 colon, 86.6 µM. For the same compound, the TGI in the assay with HCT-15 colon is over 100 µM; in the assay on KM12 colon, over 100 µM; in the assay on NCI-H23 lung, 57.5 µM; in the assay with OVCAR-4 ovarian, over 100 µM; in the assay on OVCAR-5 ovarian it was over 100 µM; in the assay on SF-295 CNS it was over 100 µM. Moreover, the TGI in the assay with SN12C renal, with SNB-19 CNS and in the assay with U251 CNS was over 100 µM in each case.
With `CC1(O)CC2C(CC1SC1CC3C(CC1(C)O)C3(C)C)C2(C)C` (centres undefined), the TGI with 786-0 renal was over 100 µM; in the assay on A549 NSCLC it was over 100 µM; in the assay on ACHN renal it was over 100 µM; in the assay on EKVX NSCLC, 83.9 µM; in the assay on HCC-2998 colon, over 100 µM; in the assay with HCT-116 colon it was over 100 µM. Besides, the TGI was over 100 µM in the assay with HCT-15 colon; over 100 µM in the assay with KM12 colon; over 100 µM in the assay on NCI-H23 lung; 94.1 µM in the assay on OVCAR-4 ovarian; over 100 µM in the assay on OVCAR-5 ovarian; over 100 µM with SF-295 CNS. Besides, the TGI in the assay with SN12C renal and in the assay with U251 CNS was over 100 µM each time.
